Results taken from patent US9169260B2 (MERCK SHARP & DOHME CORP., priority 2011, dated 2015).
Like-named read-outs stand apart in the source and are kept apart here.

Target: GST tagged IRAK-4 (Homo sapiens (Human), UniProt Q9NWZ3)
Assay: IRAK-4 Kinase Assay (IMAP fluorescence polarization)
Assay type: biochemical
Summary of the method: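 Activity was read by IMAP fluorescence polarization, where phosphopeptide binding to M(III) nanoparticles raises FP. The 30-minute, 25° C reaction used 100 μM ATP, 100 nM RP7030 substrate and 0.5 nM GST-IRAK-4 in pH 7.2 Tris buffer with MgCl2, DTT and Tween 20.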

[1] = 100 μM ATP, 30 minutes at 25° C., μM
[2] = 100 μM ATP, 30 minutes at 25° C.

Chain of GST tagged IRAK-4 (Q9NWZ3 whole entry): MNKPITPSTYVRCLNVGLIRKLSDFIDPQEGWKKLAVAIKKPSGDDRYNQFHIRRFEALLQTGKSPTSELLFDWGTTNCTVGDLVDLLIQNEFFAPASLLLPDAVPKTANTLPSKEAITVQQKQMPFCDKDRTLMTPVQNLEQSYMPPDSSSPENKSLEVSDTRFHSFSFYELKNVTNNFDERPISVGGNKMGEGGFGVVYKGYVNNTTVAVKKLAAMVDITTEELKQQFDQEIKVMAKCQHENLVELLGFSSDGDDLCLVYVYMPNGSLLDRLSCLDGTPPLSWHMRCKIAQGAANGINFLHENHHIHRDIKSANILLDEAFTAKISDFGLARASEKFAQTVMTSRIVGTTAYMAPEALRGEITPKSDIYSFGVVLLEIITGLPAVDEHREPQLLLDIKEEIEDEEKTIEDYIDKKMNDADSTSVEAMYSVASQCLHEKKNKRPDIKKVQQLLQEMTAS

Molecule	IC50 [1] [µM]	IC50 [2] [µM]	also measured
Cc1ccc(-n2nc(C3CCN(C4CN(S(=O)(=O)C5CC5)C4)CC3)cc2NC(=O)c2cnn3cccnc23)cc1 [Example 245, N-[3-{1-[1-(cyclopropylsulfonyl)azetidin-3-yl]piperidin-4-yl]-1-(4-methylphenyl)-1H-pyrazol-5-yl}pyrazolo[1,5-a]pyrimidine-3-carboxamide]	< 1		
Cc1ccc(-n2nc(-c3cncnc3)cc2NC(=O)c2cnn3cccnc23)cc1 [Example 137, N-(3-(pyrimidin-5-yl)-1-(p-tolyl)-1H-pyrazol-5-yl)pyrazolo[1,5-a]pyrimidine-3-carboxamide]	> 1		
O=C(Nc1cc(-c2ccncc2)nn1-c1ccc(F)cc1)c1cnn2cccnc12 [Example 126, N-(1-(4-fluorophenyl)-3-(pyridin-4-yl)-1H-pyrazol-5-yl)pyrazolo[1,5-a]pyrimidine-3-carboxamide]	< 1		
Cc1ccc(-n2nc(C3CN(S(=O)(=O)C4CCCC4)C3)cc2NC(=O)c2cnn3cccnc23)cc1 [Example 85, N-(3-(1-(cyclopentylsulfonyl)azetidin-3-yl)-1-(p-tolyl)-1H-pyrazol-5-yl)pyrazolo[1,5-a]pyrimidine-3-carboxamide]	< 1		
CS(=O)(=O)N1CCC(c2cc(NC(=O)c3cnn4cccnc34)n(-c3ccc(Br)cc3F)n2)CC1 [Example 71, N-(1-(4-bromo-2-fluorophenyl)-3-(1-(methylsulfonyl)piperidin-4-yl)-1H-pyrazol-5-yl)pyrazolo[1,5-a]pyrimidine-3-carboxamide]	< 1		
Cc1ccc(-n2nc(C3CCN(S(=O)(=O)c4cccc(C(F)(F)F)c4)CC3)cc2NC(=O)c2cnn3cccnc23)cc1 [Example 371, N-[1-(4-methylphenyl)-3-(1-{[3-(trifluoromethyl)phenyl]sulfonyl}piperidin-4-yl)-1H-pyrazol-5-yl]pyrazolo[1,5-a]pyrimidine-3-carboxamide]	> 1		
COC(=O)N1CCC(c2cc(NC(=O)c3cnn4cc(Br)cnc34)n(-c3ccc(C)cc3)n2)CC1 [Example 118, methyl 4-(5-(6-bromopyrazolo[1,5-a]pyrimidine-3-carboxamido)-1-(p-tolyl)-1H-pyrazol-3-yl)piperidine-1-carboxylate]		< 0.1	
O=C(Nc1cc(C2CCN(S(=O)(=O)C3CC3)CC2)nn1-c1ccc(F)cc1)c1cnn2cccnc12 [Example 22, N-(3-(1-(cyclopropylsulfonyl)piperidin-4-yl)-1-(4-fluorophenyl)-1H-pyrazol-5-yl)pyrazolo[1,5-a]pyrimidine-3-carboxamide]	< 1		
Cc1ccc(-n2nc(C3CCN(C4CCC(N(C)S(C)(=O)=O)CC4)CC3)cc2NC(=O)c2cnn3cccnc23)nc1 (centres unmarked) [Example 262, N-[3-(1-{4-[methyl(methylsulfonyl)amino]cyclohexyl}piperidin-4-yl)-1-(5-methylpyridin-2-yl)-1H-pyrazol-5-yl]pyrazolo[1,5-a]pyrimidine-3-carboxamide]		< 0.1	
CCCCS(=O)(=O)N1CCC(c2cc(NC(=O)c3cnn4cccnc34)n(-c3ccc(C)cc3)n2)CC1 [Example 369, N-{3-[1-(butylsulfonyl)piperidin-4-yl]-1-(4-methylphenyl)-1H-pyrazol-5-yl}pyrazolo[1,5-a]pyrimidine-3-carboxamide]	< 1		
O=C(Nc1cc(C2CCNCC2)nn1-c1nccs1)c1cnn2cccnc12 [Example 189, N-(3-(piperidin-4-yl)-1-(thiazol-2-yl)-1H-pyrazol-5-yl)pyrazolo[1,5-a]pyrimidine-3-carboxamide]		< 0.1	
Cc1ccc(-n2nc(C3CCN(CC(N)=O)CC3)cc2NC(=O)c2cnn3cc(Br)cnc23)cc1 [Example 115, N-(3-(1-(2-amino-2-oxoethyl)piperidin-4-yl)-1-(p-tolyl)-1H-pyrazol-5-yl)-6-bromopyrazolo[1,5-a]pyrimidine-3-carboxamide]		< 0.1	
Cc1cccc(-n2nc(C3CCN(S(C)(=O)=O)CC3)cc2NC(=O)c2cnn3cccnc23)c1 [Example 17, N-(3-(1-(methylsulfonyl)piperidin-4-yl)-1-(m-tolyl)-1H-pyrazol-5-yl)pyrazolo[1,5-a]pyrimidine-3-carboxamide]	< 1		
O=C(Nc1cc(C2CCN(C3CCC3)CC2)nn1-c1ccc(F)cc1F)c1cnn2cccnc12 [Example 49, N-(3-(1-cyclobutylpiperidin-4-yl)-1-(2,4-difluorophenyl)-1H-pyrazol-5-yl)pyrazolo[1,5-a]pyrimidine-3-carboxamide]		< 0.1	
Cc1ccc(-n2nc(C3CCN(C4CCCC(C)C4)CC3)cc2NC(=O)c2cnn3cccnc23)nc1 (centres unmarked) [Example 277, N-{3-[1-(3-methylcyclohexyl)piperidin-4-yl]-1-(5-methylpyridin-2-yl)-1H-pyrazol-5-yl}pyrazolo[1,5-a]pyrimidine-3-carboxamide]		< 0.1	
Cc1ccc(-n2nc(-c3ccnc(CO)c3)cc2NC(=O)c2cnn3cccnc23)cc1 [Example 329, N-{3-[2-(hydroxymethyl)pyridin-4-yl]-1-(4-methylphenyl)-1H-pyrazol-5-yl}pyrazolo[1,5-a]pyrimidine-3-carboxamide]	< 1		

Molecule	IC50 [1] [µM]	IC50 [2] [µM]	also measured
Cc1ccc(-n2nc(C3CCN(C4CCC4)CC3)cc2NC(=O)c2cnn3cccnc23)nc1 [Example 274, N-[3-(1-cyclobutylpiperidin-4-yl)-1-(5-methylpyridin-2-yl)-1H-pyrazol-5-yl]pyrazolo[1,5-a]pyrimidine-3-carboxamide]		< 0.1	
COc1ccc(S(=O)(=O)N2CCC(c3cc(NC(=O)c4cnn5cccnc45)n(-c4ccc(C)cc4)n3)CC2)c(OC)c1 [Example 372, N-[3-{1-[(2,4-dimethoxyphenyl)sulfonyl]piperidin-4-yl}-1-(4-methylphenyl)-1H-pyrazol-5-yl]pyrazolo[1,5-a]pyrimidine-3-carboxamide]	< 1		
CON=C1CCC(c2cc(NC(=O)c3cnn4cccnc34)n(-c3ccc(C)cc3)n2)CC1 (centres unmarked) [Example 3, N-(3-(4-(methoxyimino)cyclohexyl)-1-(p-tolyl)-1H-pyrazol-5-yl)pyrazolo[1,5-a]pyrimidine-3-carboxamide]	< 1		
Cc1ccc(-n2nc(C3CCN(S(=O)(=O)Cc4ccccn4)CC3)cc2NC(=O)c2cnn3cccnc23)cc1 [Example 397, N-[1-(4-methylphenyl)-3-{1-[(pyridin-2-ylmethyl)sulfonyl]piperidin-4-yl}-1H-pyrazol-5-yl]pyrazolo[1,5-a]pyrimidine-3-carboxamide]		< 0.1	
COCC(C)N1CCC(c2cc(NC(=O)c3cnn4cccnc34)n(-c3ccc(C)cc3)n2)CC1 (centres unmarked) [Example 211, N-(3-(1-(1-methoxypropan-2-yl)piperidin-4-yl)-1-(p-tolyl)-1H-pyrazol-5-yl)pyrazolo[1,5-a]pyrimidine-3-carboxamide]		< 0.1	
Cc1ccc(-n2nc(C3CCN(C(N)=O)CC3)cc2NC(=O)c2cnn3cccnc23)cc1 [Example 35, N-(3-(1-carbamoylpiperidin-4-yl)-1-(p-tolyl)-1H-pyrazol-5-yl)pyrazolo[1,5-a]pyrimidine-3-carboxamide]	< 1		
CCC(=O)N1CC(N2CCC(c3cc(NC(=O)c4cnn5cccnc45)n(-c4ccc(C)cc4)n3)CC2)C1 [Example 249, N-{1-(4-methylphenyl)-3-[1-(1-propanoylazetidin-3-yl)piperidin-4-yl]-1H-pyrazol-5-yl}pyrazolo[1,5-a]pyrimidine-3-carboxamide]	< 1		
N3-(3-(1-(methylsulfonyl)piperidin-4-yl)-1-(p-tolyl)-1H-pyrazol-5-yl)pyrazolo[1,5-a]pyrimidine-3,6-dicarboxamide [Example 192]		< 0.1	
N-(3-(4-(aminomethyl)cyclohexyl)-1-(p-tolyl)-1H-pyrazol-5-yl)pyrazolo[1,5-a]pyrimidine-3-carboxamide [Example 184]			IC50: < 0.1 µM
CCN(CC)CCC(=O)N1CCC(c2cc(NC(=O)c3cnn4cc(Br)cnc34)n(-c3ccc(C)cc3)n2)CC1 [Example 114, 6-bromo-N-(3-(1-(3-(diethylamino)propanoyl)piperidin-4-yl)-1-(p-tolyl)-1H-pyrazol-5-yl)pyrazolo[1,5-a]pyrimidine-3-carboxamide]		< 0.1	
Cc1ccc(-n2nc(C3CCN(S(=O)(=O)Cc4ccccc4)CC3)cc2NC(=O)c2cnn3cccnc23)cc1 [Example 387, N-{3-[1-(benzylsulfonyl)piperidin-4-yl]-1-(4-methylphenyl)-1H-pyrazol-5-yl}pyrazolo[1,5-a]pyrimidine-3-carboxamide]	< 1		
Cc1ccc(-n2nc(-c3ccc(S(=O)(=O)C(C)C)cc3)cc2NC(=O)c2cnn3cccnc23)cc1 [Example 341, N-[3-{4-[(1-methylethyl)sulfonyl]phenyl}-1-(4-methylphenyl)-1H-pyrazol-5-yl]pyrazolo[1,5-a]pyrimidine-3-carboxamide]	< 1		
Cc1ccc(-n2nc(-c3ccc(S(=O)(=O)N(C)C)cc3)cc2NC(=O)c2cnn3cccnc23)cc1 [Example 353, N-{3-[4-(dimethylsulfamoyl)phenyl]-1-(4-methylphenyl)-1H-pyrazol-5-yl}pyrazolo[1,5-a]pyrimidine-3-carboxamide]		< 0.1	
O=C(Nc1cc(C2CCNCC2)nn1-c1ccc(C(F)(F)F)cc1)c1cnn2cccnc12 [Example 11, N-(3-(piperidin-4-yl)-1-(4-(trifluoromethyl)phenyl)-1H-pyrazol-5-yl)pyrazolo[1,5-a]pyrimidine-3-carboxamide]	< 1		
Cc1ccc(-n2nc(-c3ccc(CO)nc3)cc2NC(=O)c2cnn3cccnc23)cc1 [Example 330, N-{3-[6-(hydroxymethyl)pyridin-3-yl]-1-(4-methylphenyl)-1H-pyrazol-5-yl}pyrazolo[1,5-a]pyrimidine-3-carboxamide]		< 0.1	
Cc1ccc(-n2nc(C3CCC(C(N)=O)CC3)cc2NC(=O)c2cnn3cccnc23)cc1 (centres unmarked) [Example 95, N-(3-(4-carbamoylcyclohexyl)-1-(p-tolyl)-1H-pyrazol-5-yl)pyrazolo[1,5-a]pyrimidine-3-carboxamide]	< 1		
